Source: article PMC11219871, “Epigenetic-based differentiation therapy for Acute Myeloid Leukemia” (Nature Communications, 2024)
“And” between values parts separate entries of the source, which are not always exact repeats. Equal values may be shown once. Read-outs that look alike come from different tables or passages of the source.

Experiments:
Format in all cases: cell-based, human
MOLM-13 [1] = assay: Cell proliferation assay: GI50
Method in brief: (§1)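 Suspension cells at 1 × 10^6 cells/mL were treated in triplicate, then incubated 1–3 h with MTS reagent (CellTiter 96 AQueous One) for colorimetric viable-cell read-out. After medium-only background subtraction, absorbance was expressed as % of untreated cells, and GI50 was fitted by non-linear regression.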

ML-2 = assay: Cell proliferation assay: GI50
Method in brief: as §1

MV4-11 [2] = assay: Cell proliferation assay: GI50
Method in brief: as §1

HL-60 [3] = assay: Cell proliferation assay: GI50
Method in brief: as §1

MOLM-13 [4] = assay: Differentiation-apoptosis assay, CD11b / annexin-V / Sytox Green / myeloid markers flow cytometry; design: Cell viability (%): concentration or dose not given beside the values; CD11b levels: unit not given here
Method in brief: (§2)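 Differentiation and apoptosis were read by flow cytometry after 15 min dark staining at room temperature with APC-CD11b plus FITC annexin-V, 1 × 10^6 cells/mL in binding buffer. Myeloid markers CD13, HLA-DR and CD14 were stained in separate runs for 30 min, followed by lysis and washing.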

MV4-11 [5] = assay: as above; design: Cell viability (%): concentration or dose not given beside the values; CD11b levels: unit not given here
Method in brief: as §2

HL-60 [6] = assay: as above; design: Cell viability (%): concentration or dose not given beside the values; CD11b levels: unit not given here; conditions: for Annexin V (%) Replicate 1 / Annexin V (%) Replicate 2 / Annexin V (%) Replicate 3 / CD11b (%) Replicate 1 / CD11b (%) Replicate 2 / CD11b (%) Replicate 3: HL-60, daily 25% GI50, 48 h
Method in brief: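 HL-60 cells were stained for the myeloid differentiation marker CD11b, with annexin-V and Sytox Green marking apoptosis and cell death. Cells were washed in PBS and resuspended at 1 × 10^6 cells/mL in binding buffer; marker staining of 1 million cells was for 30 min at room temperature in the dark, followed by red-cell lysis. Readout was flow cytometry.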

[7] = Homo sapiens, MOLM-13, MOLM-13, replicates 1-3
[8] = Homo sapiens, ML-2, ML-2, replicates 1-3
[9] = HL-60, replicates 1-3, read-out: GI50
[10] = Homo sapiens, HL-60, HL-60, replicates 1-3, read-out: GI50
[11] = MOLM-13, 48 h treatment, replicates 1-3 (Suppl. Fig. 5A)
[12] = MOLM-13, daily treatment, time 0 days
[13] = MOLM-13, daily treatment, time 2 days
[14] = MOLM-13, daily treatment, time 4 days
[15] = MOLM-13, daily treatment, time 6 days
[16] = MOLM-13, daily treatment, time 8 days
[17] = MOLM-13 cell line, replicates 1-3 (Figure 2A)
[18] = MV4-11, 48 h treatment, replicates 1-3 (Suppl. Fig. 5A)
[19] = MV4-11, daily treatment, time 0 days
[20] = MV4-11, daily treatment, time 2 days
[21] = MV4-11, daily treatment, time 4 days
[22] = MV4-11, daily treatment, time 6 days
[23] = MV4-11 cell line, replicates 1-3 (Figure 2A)
[24] = HL-60, 48 h treatment, replicates 1-3 (Suppl. Fig. 5A)
[25] = HL-60, daily treatment, time 0 days, replicates 1-3 (Figure 2B)
[26] = HL-60, daily treatment, time 2 days, replicates 1-3 (Figure 2B)
[27] = HL-60, daily treatment, time 4 days, replicates 1-3 (Figure 2B)
[28] = HL-60, daily treatment, time 6 days, replicates 1-3 (Figure 2B)
[29] = HL-60, daily treatment, time 8 days, replicates 1-3 (Figure 2B)
[30] = HL-60 cell line, replicates 1-3 (Figure 2A)

COc1cc2nc(-c3cc(C)oc3C)cc(NCC3CCN(c4ncc(C(=O)NO)cn4)CC3)c2cc1OC [CM-1758, 2-[4-[[[2-(2,5-dimethyl-3-furyl)-6,7-dimethoxy-4-quinolyl]amino]methyl] -1-piperidyl]pyrimidine-5-carbohydroxamic acid]
GI50 (MOLM-13 [1]; Homo sapiens, MOLM-13, 48 h): 558 nM | GI50 (MOLM-13 [1]; [7]): 412 nM | GI50 (MOLM-13 [1]; MOLM-13, replicates 1-3): 685 nM and 576 nM | GI50 (ML-2; Homo sapiens, ML-2, 48 h): 844 nM | GI50 (ML-2; [8]): 869 nM | GI50 (ML-2; ML-2, replicates 1-3): 812 nM and 849 nM | GI50 (MV4-11 [2]; Homo sapiens, MV4-11, 48 h): 292 nM | GI50 (MV4-11 [2]; MV4-11, replicates 1-3): 498 nM and 125 nM and 252 nM | GI50 (HL-60 [3]; [9]): 1020 nM and 1180 nM | GI50 (HL-60 [3]; Homo sapiens, HL-60, 48 h, 48 h, read-out: HL-60 GI50): 1190 nM | GI50 (HL-60 [3]; [10]): 1360 nM | CD11b (%) (MOLM-13 [4]; MOLM-13, 48 h): 93.0% | CD13 (%) (MOLM-13 [4]; MOLM-13, 48 h): 54.8% | CD14 (%) (MOLM-13 [4]; MOLM-13, 48 h): 35.6% | HLA-DR (%) (MOLM-13 [4]; MOLM-13, 48 h): 27.9% | CD11b (%) (MOLM-13 [4]; [11]): 93.5% and 87.6% and 86.0% | Cell viability (%) (MOLM-13 [4]; [11]): 71.1% and 73.4% and 72.7% | differentiation level (CD11b) (MOLM-13 [4]; MOLM-13, after 6–8 days of treatment): ~90% | CD11b levels (MOLM-13 [4]; MOLM-13, daily treatment for 48 h, replicates 1-3 (Suppl. Fig. 9A)): 61.5 and 58.4 and 65.3 | Annexin-V (%) (MOLM-13 [4]; [12]): 4.46% and 6.55% and 4.89% | CD11b (%) (MOLM-13 [4]; [12]): 6.62% and 4.5% and 6.9% | Annexin-V (%) (MOLM-13 [4]; [13]): 11.4% and 10.2% and 9.87% | CD11b (%) (MOLM-13 [4]; [13]): 73% and 68.5% and 65.7% | Annexin-V (%) (MOLM-13 [4]; [14]): 23.3% and 19.7% and 17.2% | CD11b (%) (MOLM-13 [4]; [14]): 83.3% and 80.2% and 78.3% | Annexin-V (%) (MOLM-13 [4]; [15]): 23.9% and 24.2% and 20.6% | CD11b (%) (MOLM-13 [4]; [15]): 89.9% and 85.1% and 83.1% | Annexin-V (%) (MOLM-13 [4]; [16]): 29.4% and 27.5% and 25.4% | CD11b (%) (MOLM-13 [4]; [16]): 91.9% and 90.1% and 92.4% | CD11b (%) (MOLM-13 [4]; [17]): 70.54% and 69.2% and 63% | CD11b (%) (MV4-11 [5]; MV4-11, 48 h): 57.9% | CD13 (%) (MV4-11 [5]; MV4-11, 48 h): 98.1% | CD14 (%) (MV4-11 [5]; MV4-11, 48 h): 56.2% | HLA-DR (%) (MV4-11 [5]; MV4-11, 48 h): 38.4% | CD11b (%) (MV4-11 [5]; [18]): 47.1% and 53.2% and 55.4% | Cell viability (%) (MV4-11 [5]; [18]): 80.4% and 85.9% and 86.75% | differentiation level (CD11b) (MV4-11 [5]; MV4-11, after 6–8 days of treatment): ~90% | CD11b levels (MV4-11 [5]; MV4-11, daily treatment for 48 h, replicates 1-3 (Suppl. Fig. 9A)): 37.8 and 40.7 and 46.2 | Annexin-V (%) (MV4-11 [5]; [19]): 5.32% and 4.14% and 5.2% | CD11b (%) (MV4-11 [5]; [19]): 11.1% and 6.62% and 5.25% | Annexin-V (%) (MV4-11 [5]; [20]): 7.65% and 8.98% and 10.24% | CD11b (%) (MV4-11 [5]; [20]): 28.2% and 20.4% and 30.4% | Annexin-V (%) (MV4-11 [5]; [21]): 26.3% and 27.9% and 28.6% | CD11b (%) (MV4-11 [5]; [21]): 44.3% and 46.2% and 46.6% | Annexin-V (%) (MV4-11 [5]; [22]): 19.6% and 21.2% and 20.7% | CD11b (%) (MV4-11 [5]; [22]): 76% and 75.1% and 74.8% | CD11b (%) (MV4-11 [5]; [23]): 38.46% and 40.4% and 45.7% | percentage of CD11b (HL-60 [6]; HL-60, 270 nM CM-444 or 300 nM CM-1758 daily for 4 days, before injection): > 90% | CD11b (%) (HL-60 [6]; HL-60, 48 h): 71.2% | CD13 (%) (HL-60 [6]; HL-60, 48 h): 100% | CD14 (%) (HL-60 [6]; HL-60, 48 h): 18.9% | HLA-DR (%) (HL-60 [6]; HL-60, 48 h): 12.2% | CD11b (%) (HL-60 [6]; [24]): 65.4% and 71.1% and 68.4% | Cell viability (%) (HL-60 [6]; [24]): 82.8% and 73.6% and 69.5% | differentiation level (CD11b) (HL-60 [6]; HL-60, after 6–8 days of treatment): ~90% | Annexin V (%) Replicate 1 (HL-60 [6]): 0.26% | Annexin V (%) Replicate 2 (HL-60 [6]): 0.17% | Annexin V (%) Replicate 3 (HL-60 [6]): 0.14% | CD11b (%) Replicate 1 (HL-60 [6]): 55.36% | CD11b (%) Replicate 2 (HL-60 [6]): 68.41% | CD11b (%) Replicate 3 (HL-60 [6]): 67.15% | Annexin-V (%) (HL-60 [6]; [25]): 0% and 4.96% and 3.21% | CD11b (%) (HL-60 [6]; [25]): 13.33% and 12.5% and 10.8% | Annexin-V (%) (HL-60 [6]; [26]): 5.66% and 3.51% and 4.98% | CD11b (%) (HL-60 [6]; [26]): 74.44% and 64.2% and 68.7% | Annexin-V (%) (HL-60 [6]; [27]): 0% and 4.07% and 5.87% | CD11b (%) (HL-60 [6]; [27]): 86.57% and 79.2% and 77.3% | Annexin-V (%) (HL-60 [6]; [28]): 5.76% and 2.68% and 3.98% | CD11b (%) (HL-60 [6]; [28]): 94.42% and 89.2% and 90.5% | Annexin-V (%) (HL-60 [6]; [29]): 0% and 5.21% and 6.98% | CD11b (%) (HL-60 [6]; [29]): 96% and 92.9% and 94.7% | CD11b (%) (HL-60 [6]; [30]): 81.73% and 89.6% and 92.1% | CD11b levels (HL-60 [6]; HL-60 treated daily for 48 h, replicates (Fig 6D)): 61.2 and 70.4 and 75.9

CC1=C(/C=C/C(C)=C/C=C/C(C)=C/C(=O)O)C(C)(C)CCC1 [ATRA, all-trans retinoic acid, reference compound]
GI50 (MOLM-13 [1]; Homo sapiens, MOLM-13, 48 h): > 10000 nM | GI50 (MOLM-13 [1]; [7]): > 10000 nM | GI50 (MOLM-13 [1]; MOLM-13, replicates 1-3): > 10000 nM | GI50 (ML-2; Homo sapiens, ML-2, 48 h): > 10000 nM | GI50 (ML-2; [8]): > 10000 nM | GI50 (ML-2; ML-2, replicates 1-3): > 10000 nM | GI50 (MV4-11 [2]; Homo sapiens, MV4-11, 48 h): > 10000 nM | GI50 (MV4-11 [2]; Homo sapiens, MV4-11, MV4-11, replicates 1-3): > 10000 nM | GI50 (MV4-11 [2]; MV4-11, replicates 1-3): > 10000 nM | GI50 (HL-60 [3]; [9]): > 10000 nM | GI50 (HL-60 [3]; Homo sapiens, HL-60, 48 h, read-out: GI50): > 10000 nM | GI50 (HL-60 [3]; [10]): > 10000 nM | CD11b (%) (MOLM-13 [4]; [17]): 26.9% and 23.1% and 27.34% | CD11b (%) (MV4-11 [5]; [23]): 9.6% and 4.7% and 11.86% | Annexin V (%) Replicate 1 (HL-60 [6]): 0.34% | Annexin V (%) Replicate 2 (HL-60 [6]): 0.98% | Annexin V (%) Replicate 3 (HL-60 [6]): 0.97% | CD11b (%) Replicate 1 (HL-60 [6]): 10.12% | CD11b (%) Replicate 2 (HL-60 [6]): 15.48% | CD11b (%) Replicate 3 (HL-60 [6]): 12.56% | CD11b (%) (HL-60 [6]; [30]): 10.3% and 15.8% and 12.06%
